Measured values as given in the supplement of paper PMC10307832.

Assays:
Assay in all cases: relative viability (nuclei count vs DMSO), 5 days (fraction); higher = more cells survive
XMD14-99 + AZD7762 = compound: CN1CCN(CC1)C2=CC(=C(C=C2)NC3=NC(=C(S3)C(=O)C4=C(C=CC=C4Cl)Cl)N)OC [XMD14-99] + NC(=O)Nc1cc(-c2cccc(F)c2)sc1C(=O)N[C@H]1CCCNC1 [AZD7762] (partner 0.2 µM)
In short: (§1)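 A single step with final 0.05% Triton X-100, 1% formaldehyde and 1 ug/ml Hoechst fixed the cells and stained nuclei 5 days after treatment. Lung cancer cell lines in 1536-well plates had been treated by pin tool the day after seeding with one drug alone or a fixed anchor-drug dose plus five library-drug doses (not always all listed) in √10 steps, and nuclei were counted on 4× images. Relative viability is the ratio of nuclei in treated wells to nuclei in vehicle wells, taken as the median of duplicate plates.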

AZD1208 + Decitabine = compound: N[C@@H]1CCCN(c2c(/C=C3\SC(=O)NC3=O)cccc2-c2ccccc2)C1 [AZD1208] + Nc1ncn([C@H]2C[C@H](O)[C@@H](CO)O2)c(=O)n1 [Decitabine] (partner 2 µM)
In short: as §1

AZD1208 + Crizotinib = compound: N[C@@H]1CCCN(c2c(/C=C3\SC(=O)NC3=O)cccc2-c2ccccc2)C1 [AZD1208] + C[C@@H](Oc1cc(-c2cnn(C3CCNCC3)c2)cnc1N)c1c(Cl)ccc(F)c1Cl [Crizotinib] (partner 1 µM)
In short: as §1

XMD14-99 + Palbociclib = compound: CN1CCN(CC1)C2=CC(=C(C=C2)NC3=NC(=C(S3)C(=O)C4=C(C=CC=C4Cl)Cl)N)OC [XMD14-99] + CC(=O)c1c(C)c2cnc(Nc3ccc(N4CCNCC4)cn3)nc2n(C2CCCC2)c1=O [Palbociclib] (partner 0.5 µM)
In short: as §1

Row | Cell Line | relative viability (XMD14-99 + AZD7762; first compound 0.08 µM) | relative viability (XMD14-99 + AZD7762; first compound 0.8 µM) | relative viability (XMD14-99 + AZD7762; first compound 2.53 µM) | relative viability (XMD14-99 + AZD7762; first compound 8 µM) | relative viability (AZD1208 + Decitabine; first compound 0.08 µM) | relative viability (AZD1208 + Decitabine; first compound 0.253 µM) | relative viability (AZD1208 + Decitabine; first compound 0.8 µM) | relative viability (AZD1208 + Decitabine; first compound 2.53 µM) | relative viability (AZD1208 + Decitabine; first compound 8 µM) | relative viability (AZD1208 + Crizotinib; first compound 0.08 µM) | relative viability (AZD1208 + Crizotinib; first compound 0.253 µM) | relative viability (AZD1208 + Crizotinib; first compound 0.8 µM) | relative viability (AZD1208 + Crizotinib; first compound 2.53 µM) | relative viability (AZD1208 + Crizotinib; first compound 8 µM) | relative viability (XMD14-99 + Palbociclib; first compound 0.08 µM) | relative viability (XMD14-99 + Palbociclib; first compound 0.8 µM) | relative viability (XMD14-99 + Palbociclib; first compound 2.53 µM) | relative viability (XMD14-99 + Palbociclib; first compound 8 µM)
1 | NCI-H727 | 0.582 | 0.598 | 0.506 | 0.578 | 0.906 | 0.689 | 0.589 | 0.867 | 0.854 | 0.795 | 0.863 | 0.819 | 0.789 | 0.703 | 0.691 | 0.652 | 0.609 | 0.544
2 | RERF-LC-KJ | 0.902 | 1 | 0.86 | 0.794 | 0.66 | 0.674 | 0.632 | 0.586 | 0.555 | 0.868 | 0.863 | 0.835 | 0.791 | 0.792 | 1.01 | 1.04 | 0.952 | 0.9
3 | LC-2-ad | 0.869 | 0.872 | 0.889 | 0.735 | 0.79 | 0.8 | 0.781 | 0.879 | 0.79 | 0.488 | 0.401 | 0.421 | 0.383 | 0.392 | 0.525 | 0.446 | 0.466 | 0.487
4 | BEN | 0.594 | 0.736 | 0.596 | 0.514 | 0.779 | 0.577 | 0.653 | 0.653 | 0.564 | 0.729 | 0.825 | 0.611 | 0.639 | 0.402 | 0.489 | 0.468 | 0.478 | 0.476
5 | EMC-BAC-2 | 1.15 | 1.11 | 1.08 | 0.835 | 0.932 | 0.94 | 0.903 | 0.992 | 0.812 | 0.84 | 0.785 | 0.74 | 0.798 | 0.674 | 0.523 | 0.516 | 0.509 | 0.481
6 | LU99A | 0.3 | 0.227 | 0.31 | 0.235 | 0.991 | 0.899 | 0.795 | 0.852 | 0.799 | 0.517 | 0.541 | 0.519 | 0.488 | 0.446 | 0.382 | 0.415 | 0.396 | 0.328
7 | ABC-1 | 0.859 | 1.03 | 0.865 | 0.762 | 0.926 | 1.07 | 0.992 | 0.989 | 0.821 | 1.03 | 1.23 | 1.11 | 1.09 | 1.11 | 0.783 | 0.722 | 0.651 | 0.634
8 | NCI-H2170 | 0.787 | 0.928 | 0.875 | 0.702 | 0.439 | 0.498 | 0.417 | 0.481 | 0.369 | 1.18 | 1.2 | 1.01 | 1.12 | 0.836 | 0.426 | 0.4 | 0.425 | 0.395
9 | NCI-H2405 | 0.745 | 0.809 | 0.586 | 0.479 | 0.683 | 0.752 | 0.695 | 0.719 | 0.653 | 0.831 | 0.86 | 0.782 | 0.81 | 0.838 | 0.512 | 0.578 | 0.557 | 0.503
